Reference: patent publication US9149038B2, “4-amino-6-(heterocyclic)picolinates and 6-amino-2-(heterocyclic)pyrimidine-4-carboxylates and their use as herbicides” (Dow AgroSciences LLC, priority 2013, dated 2015)
Where two headings read alike, the source gives them in different places.

Key:
[1] = test system: Key Broadleaf Weed and Crop Species; assay: Post-Emergent Test II: postemergent herbicidal activity, visual rating after 14 d (Table 7); type: in vivo; conditions: post-emergence, 336 h; for pest or weed control at 35 g/ha: 35 g ai/ha; for pest or weed control at 70 g/ha: 70 g ai/ha; for pest or weed control at 140 g/ha: 140 g ai/ha
Procedure, shortened: (§1)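 Visual 0-100% injury score (0 no injury, 100 complete kill) at 14 d post-spray, relative to untreated plants. Seedlings at 1st-2nd true leaf stage; track sprayer at 187 L/ha, highest rate plus ½×, ¼×, ⅛×, 1/16× serial dilutions. Subirrigated after treatment.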

[2] = test system: Key Grass and Sedge Weeds as well as Grass Crops; assay: Post-Emergent Test II: postemergent herbicidal activity, visual rating after 14 d (Table 8); type: in vivo; conditions: post-emergence, 336 h; for pest or weed control at 35 g/ha: 35 g ai/ha; for pest or weed control at 70 g/ha: 70 g ai/ha; for pest or weed control at 140 g/ha: 140 g ai/ha
Procedure, shortened: as §1

[3] = lambsquarters (Chenopodium album), read-out: Visual Growth Reduction (%) 14 Days After Application CHEAL
[4] = oilseed rape, canola (Brassica napus), read-out: Visual Growth Reduction (%) 14 Days After Application BRSNN
[5] = redroot pigweed (Amaranthus retroflexus), read-out: Visual Growth Reduction (%) 14 Days After Application AMARE
[6] = sunflower (Helianthus annuus), read-out: Visual Growth Reduction (%) 14 Days After Application HELAN
[7] = velvetleaf (Abutilon theophrasti), read-out: Visual Growth Reduction (%) 14 Days After Application ABUTH
[8] = wild poinsettia (Euphorbia heterophylla), read-out: Visual Growth Reduction (%) 14 Days After Application EPHHL
[9] = barnyardgrass (Echinochloa crus-galli), read-out: Visual Growth Reduction (%) 14 Days After Application ECHCG
[10] = giant foxtail (Setaria faberi), read-out: Visual Growth Reduction (%) 14 Days After Application SETFA
[11] = maize, corn (Zea mays), read-out: Visual Growth Reduction (%) 14 Days After Application ZEAMX
[12] = rice (Oryza sativa), read-out: Visual Growth Reduction (%) 14 Days After Application ORYSA
[13] = wheat, spring (Triticum aestivum), read-out: Visual Growth Reduction (%) 14 Days After Application TRZAS
[14] = yellow nutsedge (Cyperus esculentus), read-out: Visual Growth Reduction (%) 14 Days After Application CYPES

COC(=O)c1nc(-c2ccc3c(c2)OC(C)(C)O3)c(F)c(N)c1Cl [Compound 8]
0 to 29%: pest or weed control at 35 g/ha [1, 5] | pest or weed control at 35 g/ha [1, 6] | pest or weed control at 35 g/ha [2, 12] | pest or weed control at 70 g/ha [2, 12] | pest or weed control at 35 g/ha [2, 13]
95 to 100%: pest or weed control at 35 g/ha [1, 7] | pest or weed control at 70 g/ha [1, 7] | pest or weed control at 140 g/ha [1, 7] | pest or weed control at 35 g/ha [1, 8] | pest or weed control at 70 g/ha [1, 8] | pest or weed control at 140 g/ha [1, 8] | pest or weed control at 35 g/ha [2, 9] | pest or weed control at 70 g/ha [2, 9] | pest or weed control at 140 g/ha [2, 9] | pest or weed control at 70 g/ha [2, 10] | pest or weed control at 140 g/ha [2, 10] | pest or weed control at 35 g/ha [2, 11] | pest or weed control at 70 g/ha [2, 11] | pest or weed control at 140 g/ha [2, 11] | pest or weed control at 35 g/ha [2, 14] | pest or weed control at 70 g/ha [2, 14] | pest or weed control at 140 g/ha [2, 14]
60 to 74%: pest or weed control at 35 g/ha [1, 4] | pest or weed control at 70 g/ha [1, 4] | pest or weed control at 140 g/ha [1, 5]
30 to 44%: pest or weed control at 140 g/ha [2, 12] | pest or weed control at 70 g/ha [2, 13] | pest or weed control at 140 g/ha [2, 13]
45 to 59%: pest or weed control at 35 g/ha [1, 3] | pest or weed control at 70 g/ha [1, 5] | pest or weed control at 70 g/ha [1, 6]
75 to 84%: pest or weed control at 70 g/ha [1, 3] | pest or weed control at 140 g/ha [1, 4]
85 to 94%: pest or weed control at 140 g/ha [1, 3] | pest or weed control at 140 g/ha [1, 6] | pest or weed control at 35 g/ha [2, 10]

COC(=O)c1nc(-c2cc3c(cc2F)OC(F)(F)O3)c(F)c(N)c1Cl [Compound 9]
60 to 74%: pest or weed control at 70 g/ha [2, 10] | pest or weed control at 35 g/ha [2, 11] | pest or weed control at 70 g/ha [2, 11] | pest or weed control at 140 g/ha [2, 13]
0 to 29%: pest or weed control at 35 g/ha [1, 5] | pest or weed control at 70 g/ha [1, 5] | pest or weed control at 140 g/ha [1, 5] | pest or weed control at 35 g/ha [2, 12] | pest or weed control at 70 g/ha [2, 12] | pest or weed control at 140 g/ha [2, 12]
30 to 44%: pest or weed control at 35 g/ha [2, 13]
85 to 94%: pest or weed control at 35 g/ha [1, 3] | pest or weed control at 70 g/ha [1, 3] | pest or weed control at 140 g/ha [1, 3] | pest or weed control at 70 g/ha [1, 4] | pest or weed control at 35 g/ha [1, 6] | pest or weed control at 70 g/ha [1, 6] | pest or weed control at 70 g/ha [1, 7] | pest or weed control at 70 g/ha [1, 8] | pest or weed control at 140 g/ha [1, 8] | pest or weed control at 35 g/ha [2, 9] | pest or weed control at 70 g/ha [2, 9]
45 to 59%: pest or weed control at 35 g/ha [2, 10] | pest or weed control at 70 g/ha [2, 13]
95 to 100%: pest or weed control at 140 g/ha [1, 4] | pest or weed control at 140 g/ha [1, 6] | pest or weed control at 140 g/ha [1, 7] | pest or weed control at 140 g/ha [2, 9] | pest or weed control at 35 g/ha [2, 14] | pest or weed control at 70 g/ha [2, 14] | pest or weed control at 140 g/ha [2, 14]
75 to 84%: pest or weed control at 35 g/ha [1, 4] | pest or weed control at 35 g/ha [1, 7] | pest or weed control at 35 g/ha [1, 8] | pest or weed control at 140 g/ha [2, 10] | pest or weed control at 140 g/ha [2, 11]

COC(=O)c1nc(-c2ccc3c(c2F)OC(F)(F)O3)c(F)c(N)c1Cl [Compound 10]
85 to 94%: pest or weed control at 35 g/ha [1, 3] | pest or weed control at 70 g/ha [1, 3] | pest or weed control at 70 g/ha [1, 4] | pest or weed control at 140 g/ha [1, 4] | pest or weed control at 35 g/ha [1, 5] | pest or weed control at 35 g/ha [1, 6] | pest or weed control at 70 g/ha [1, 6] | pest or weed control at 140 g/ha [1, 6] | pest or weed control at 35 g/ha [1, 7]
95 to 100%: pest or weed control at 140 g/ha [1, 3] | pest or weed control at 70 g/ha [1, 5] | pest or weed control at 140 g/ha [1, 5] | pest or weed control at 70 g/ha [1, 7] | pest or weed control at 140 g/ha [1, 7] | pest or weed control at 35 g/ha [1, 8] | pest or weed control at 70 g/ha [1, 8] | pest or weed control at 140 g/ha [1, 8] | pest or weed control at 35 g/ha [2, 9] | pest or weed control at 70 g/ha [2, 9] | pest or weed control at 140 g/ha [2, 9] | pest or weed control at 70 g/ha [2, 10] | pest or weed control at 140 g/ha [2, 10] | pest or weed control at 35 g/ha [2, 14] | pest or weed control at 70 g/ha [2, 14] | pest or weed control at 140 g/ha [2, 14]
0 to 29%: pest or weed control at 35 g/ha [2, 12] | pest or weed control at 70 g/ha [2, 12] | pest or weed control at 140 g/ha [2, 12]
45 to 59%: pest or weed control at 35 g/ha [2, 13]
75 to 84%: pest or weed control at 35 g/ha [1, 4] | pest or weed control at 35 g/ha [2, 10] | pest or weed control at 70 g/ha [2, 11] | pest or weed control at 140 g/ha [2, 11]
60 to 74%: pest or weed control at 35 g/ha [2, 11] | pest or weed control at 70 g/ha [2, 13] | pest or weed control at 140 g/ha [2, 13]
